# Tests used:
# Test in all cases: relative viability (nuclei count vs DMSO), 5 days (fraction); higher = more cells survive
# Dasatinib + AZD7762 = compound: Cc1nc(Nc2ncc(C(=O)Nc3c(C)cccc3Cl)s2)cc(N2CCN(CCO)CC2)n1 [Dasatinib] + NC(=O)Nc1cc(-c2cccc(F)c2)sc1C(=O)N[C@H]1CCCNC1 [AZD7762] (partner 0.2 µM)
# In short: (§1)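 Dosing by pin tool came one day after lung cancer cell lines were seeded in 1536-well plates, using either one drug or a fixed anchor-drug dose plus five library-drug doses (not always all listed) in √10 steps. After 5 days, nuclei were counted on 4× images. Relative viability is treated-well nuclei count divided by vehicle-well nuclei count, and values are medians of duplicate plates.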
# ALW-II-49-7 + Olaparib = compound: Cc1ccc(C(=O)Nc2cccc(C(F)(F)F)c2)cc1Nc1cncc(C(N)=O)c1 [ALW-II-49-7] + O=C(c1cc(Cc2n[nH]c(=O)c3ccccc23)ccc1F)N1CCN(C(=O)C2CC2)CC1 [Olaparib] (partner 8 µM)
# In short: as §1
# XMD13-2 + Luminespib = compound: C1CC1C(=O)NC2=NNC3=C2C=CC(=C3)C4=CC(=CC=C4)C(=O)NC5CC5 [XMD13-2] + CCNC(=O)c1noc(-c2cc(C(C)C)c(O)cc2O)c1-c1ccc(CN2CCOCC2)cc1 [Luminespib] (partner 0.01 µM)
# In short: as §1
# XMD13-2 + Pictilisib = compound: C1CC1C(=O)NC2=NNC3=C2C=CC(=C3)C4=CC(=CC=C4)C(=O)NC5CC5 [XMD13-2] + CS(=O)(=O)N1CCN(Cc2cc3nc(-c4cccc5[nH]ncc45)nc(N4CCOCC4)c3s2)CC1 [Pictilisib] (partner 1 µM)
# In short: as §1
Cell Line,relative viability (Dasatinib + AZD7762; first compound 0.005 µM),relative viability (Dasatinib + AZD7762; first compound 0.01581 µM),relative viability (Dasatinib + AZD7762; first compound 0.05 µM),relative viability (Dasatinib + AZD7762; first compound 0.1581 µM),relative viability (Dasatinib + AZD7762; first compound 0.5 µM),relative viability (ALW-II-49-7 + Olaparib; first compound 0.08 µM),relative viability (ALW-II-49-7 + Olaparib; first compound 0.253 µM),relative viability (ALW-II-49-7 + Olaparib; first compound 0.8 µM),relative viability (ALW-II-49-7 + Olaparib; first compound 2.53 µM),relative viability (ALW-II-49-7 + Olaparib; first compound 8 µM),relative viability (XMD13-2 + Luminespib; first compound 0.05 µM),relative viability (XMD13-2 + Luminespib; first compound 0.1581 µM),relative viability (XMD13-2 + Luminespib; first compound 0.5 µM),relative viability (XMD13-2 + Luminespib; first compound 1.581 µM),relative viability (XMD13-2 + Luminespib; first compound 5 µM),relative viability (XMD13-2 + Pictilisib; first compound 0.05 µM),relative viability (XMD13-2 + Pictilisib; first compound 0.1581 µM),relative viability (XMD13-2 + Pictilisib; first compound 0.5 µM),relative viability (XMD13-2 + Pictilisib; first compound 1.581 µM),relative viability (XMD13-2 + Pictilisib; first compound 5 µM)
HCC-15,1.37,1.12,1.07,0.897,0.585,0.757,0.689,0.719,0.577,0.648,0.379,0.492,0.479,0.238,0.192,0.766,0.721,0.778,0.712,0.467
NCI-H1355,0.851,0.711,0.694,0.571,0.535,0.68,0.822,0.846,0.655,0.651,0.723,0.726,0.732,0.725,0.759,0.45,0.406,0.415,0.496,0.366
LU99A,0.399,0.35,0.277,0.215,0.171,–,0.292,0.249,0.254,0.288,0.262,0.295,0.254,0.178,0.267,0.298,0.334,0.32,0.284,0.254
LCLC-97TM1,0.161,0.274,0.218,0.17,0.0853,0.429,0.442,0.399,0.279,0.353,0.883,0.743,0.811,0.667,0.677,0.297,0.187,0.13,0.148,0.123
LC-2-ad,0.871,0.727,0.599,0.337,0.268,0.736,0.793,0.682,0.721,0.343,1.16,1.06,0.973,0.992,0.952,0.533,0.352,0.569,0.413,0.332
NCI-H1395,0.401,0.39,0.358,0.356,0.356,0.473,0.449,0.435,–,0.459,0.669,0.668,0.809,0.66,0.83,0.724,0.646,0.623,0.574,0.528
NCI-H1944,0.41,0.388,0.294,0.21,0.187,0.451,0.391,0.381,0.375,0.374,0.797,0.756,0.758,0.899,0.697,0.352,0.345,0.357,0.373,0.333
HOP-62,0.481,0.585,0.626,0.268,0.167,0.162,0.378,0.595,–,0.172,1,0.878,0.925,0.881,0.938,1.01,0.617,0.586,0.725,0.476

# From the supplement of paper PMC10307832
